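Step 1: Grow cells in 96-well plates. Step 2: Expose to compound for 48 hours at 5 concentrations. Step 3: Interpolate endpoints linearly; if unreached, use highest concentration. TGI: concentration producing complete growth inhibition.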
Tests used:
Assay in all cases: DTP human tumour cell line panel, 48 h
HOP-92 NSCLC = system: HOP-92 NSCLC
RPMI-8226 leukemia = system: RPMI-8226 leukemia
MDA-MB-231 breast = system: MDA-MB-231 breast
OVCAR-5 ovarian = system: OVCAR-5 ovarian
MDA-N = system: MDA-N
COLO 205 colon = system: COLO 205 colon
MALME-3M melanoma = system: MALME-3M melanoma
SW-620 colon = system: SW-620 colon
A549 NSCLC = system: A549 NSCLC
786-0 renal = system: 786-0 renal
HT29 colon = system: HT29 colon
HS 578T breast = system: HS 578T breast

Row | SMILES | TGI (HOP-92 NSCLC) [µM] | TGI (RPMI-8226 leukemia) [µM] | TGI (MDA-MB-231 breast) [µM] | TGI (OVCAR-5 ovarian) [µM] | TGI (MDA-N) [µM] | TGI (COLO 205 colon) [µM] | TGI (MALME-3M melanoma) [µM] | TGI (SW-620 colon) [µM] | TGI (A549 NSCLC) [µM] | TGI (786-0 renal) [µM] | TGI (HT29 colon) [µM] | TGI (HS 578T breast) [µM]
1 | COc1ccc(-c2nc3ccc(C)cc3o2)c(OC)c1 | > 66.8 | 49.1 | 50.5 | 42 | 64.4 | 40.7 | 42.1 | > 86 | > 67.4 | 41.7 | 30.2 | 71.4
2 | C[C@H](CCc1nc(C#N)c(N)o1)[C@H]1CC[C@H]2[C@@H]3[C@@H](O)CC4C[C@@H](O)CC[C@]4(C)[C@H]3C[C@@H](O)[C@]12C (stereo not given in full) | 67 | 28.6 | 67.1 | 58.3 | 77.8 | 40.5 | 29.3 | 55 | > 100 | > 86.7 | 45.6 | 62.6
3 | CC(C)(C)OC(=O)C(C1NC(C(=O)O)C(C)(C)S1)N1C(=O)c2ccccc2C1=O (stereo not given) | > 100 | > 100 | > 100 | > 100 | > 100 | > 100 | > 100 | > 100 | > 100 | > 100 | > 100 | > 100
4 | Cn1cc(-c2ccc(CCOC3CCCCO3)cc2)c2c(C#N)cccc21 (stereo not given) | > 100 | > 100 | > 100 | > 100 | > 100 | 67.5 | > 100 | > 100 | > 100 | > 100 | 45.3 | > 100
5 | CS(=O)(=O)C(=Cc1ccccc1Cl)S(C)(=O)=O | > 100 | > 100 | > 100 | > 100 | > 46.4 | > 100 | > 100 | > 100 | > 100 | > 100 | > 100 | > 100
6 | CN1N=C(c2ccncc2)OC1c1ccc(Cl)c(Cl)c1 (stereo not given) | > 100 | > 100 | > 100 | > 100 | > 100 | > 100 | > 100 | > 100 | > 100 | > 100 | > 100 | > 100
7 | Cc1ccc(S(=O)(=O)n2ccn3c(=O)cc(C)nc23)cc1 | > 10 | > 10 | > 10 | > 10 | > 10 | > 10 | > 10 | > 10 | > 10 | > 10 | > 10 | > 10
8 | Nc1nc(Cl)cc(Nc2ccc3c(c2)CCC3)n1 | > 100 | 65.1 | > 100 | > 100 | > 100 | > 100 | > 100 | > 100 | > 100 | > 100 | > 100 | > 100
9 | COC(=O)C1=NN2c3ccccc3CN([C@@H](C)c3ccccc3)C(=O)[C@@H]2C1 | > 100 | 62.7 | > 100 | > 100 | > 100 | > 100 | 62.8 | > 100 | > 100 | > 100 | > 100 | 85.8
10 | Cn1ncc2c(NCCc3ccccc3)nc(Cl)nc21 | 58.4 | 47.4 | 39.4 | 36.4 | 56.5 | 34.2 | > 100 | 89.1 | 77.4 | 64.2 | 31 | > 100
11 | Cc1ccc(C2SC(N)=Nc3c2c(C)nn3C(=O)c2ccncc2)cc1 (stereo not given) | > 10 | > 10 | > 10 | > 10 | > 10 | > 10 | > 10 | > 10 | > 10 | > 10 | > 10 | > 10
12 | COc1cc(OC)c(/C=N/N=C(\N)NO)c(OC)c1 | > 100 | > 100 | > 100 | > 100 | > 100 | > 100 | > 100 | > 100 | > 100 | > 100 | > 100 | > 100
13 | CCOC(=O)c1sc2nc(SC)nc(Nc3ccc(OC)c(OC)c3)c2c1N | 25.4 | > 100 | 82.4 | > 100 | > 100 | > 100 | > 100 | > 100 | > 100 | > 100 | > 100 | 64.3
14 | CCC(=S)N(C)O | > 100 | 21.8 | > 100 | > 100 | > 100 | > 79 | > 100 | > 100 | > 100 | > 81.1 | 24.1 | > 100
15 | COC(=O)C(Cc1ccccc1)NS(=O)(=O)c1ccc(-c2c3nc(c(-c4ccc(S(=O)(=O)NC(Cc5ccccc5)C(=O)OC)cc4)c4ccc([nH]4)c(-c4ccc(S(=O)(=O)NC(Cc5ccccc5)C(=O)OC)cc4)c4nc(c(-c5ccc(S(=O)(=O)NC(Cc6ccccc6)C(=O)OC)cc5)c5ccc2[nH]5)C=C4)C=C3)cc1 (stereo not given) | > 100 | > 100 | > 100 | > 100 | > 100 | > 100 | > 100 | > 100 | > 100 | > 100 | > 100 | 62

Source: PubChem BioAssay (NCI)
